The values that follow come from patent US10865216B2, “Tricyclic Gyrase inhibitors” (MERCK SHARP & DOHME CORP., priority 2012, dated 2020).

The subject of test [1] is E. coli ATCC 25922. Kind of test: MIC, E. coli ATCC 25922. Format: cell-based. To be noted: Alamar Blue read after overnight incubation at 35° C.; for MIC Ec: E. coli; for MIC: Escherichia coli, ATCC25922, E. coli, read-out: MIC Ec. For orientation: The colour change of resazurin is a common sign of viable cells or microbes.
The test system of test [2] is S. aureus ATCC 13709. The experiment in a line: MIC, S. aureus ATCC 13709. It is filed as cell-based. To be noted: Alamar Blue read after overnight incubation at 35° C.; for MIC Sa: S. aureus; for MIC: Staphylococcus aureus, ATCC13709, S. aureus, read-out: MIC Sa.

≈ marks a conversion by molar mass, not a printed value. Some results are limits rather than exact numbers.

As for `CNc1cc(F)cc2c1[nH]c1nc(Oc3cnc(CC(=O)N4CC(N(C)C)C4)nc3)nc(N3C[C@H](N)C4(CC4)C3)c12` [Compound 4.373], the “MIC Ec” value in test [1] is 8 µg/mL (≈ 14.3 µM). Further, in test [2], the “MIC Sa” value was determined as 2 µg/mL (≈ 3.57 µM).
Taken in the same sequence, the figures for `CNc1cc(F)cc2c1[nH]c1nc(Oc3cnc(C(N)=O)nc3)nc(N3C[C@H](N)C4(CC4)C3)c12` [Compound 4.375] were 4 µg/mL (≈ 8.63 µM) and ≤0.5 µg/mL.
Taken in the same sequence, the figures for `CCNC(=O)c1cncc(Oc2nc(NCC)c3c(n2)[nH]c2c(NC)cc(F)cc23)c1` [Compound 4.384] were >16 µg/mL and 1 µg/mL (≈ 2.36 µM).
Taken in the same sequence, the figures for `CNc1cc(F)cc2c1[nH]c1nc(Oc3cnc(-c4nccn4C)nc3)nc(N3C[C@H](N)C4(CC4)C3)c12` [Compound 4.399] were 2 µg/mL (≈ 4 µM) and ≤0.5 µg/mL.
Turning to `CCOC(=O)c1ncc(Oc2nc(N3C[C@H](N)C4(CC4)C3)c3c(n2)[nH]c2c(NC)cc(F)cc23)cn1` [Compound 4.402], in test [1], the “MIC Ec” value is ≤0.5 µg/mL. Besides, in test [2], the “MIC Sa” value is ≤0.5 µg/mL.
Regarding `CNc1cc(F)cc2c1[nH]c1nc(Oc3cnc(NCC4CCCO4)nc3)nc(N3C[C@H](N)C4(CC4)C3)c12` (some centres unmarked) [Compound 4.406], the “MIC Ec” value in test [1] amounted to 1 µg/mL (≈ 1.92 µM). In addition, in test [2], the “MIC Sa” value is ≤0.5 µg/mL.
Taken in the same sequence, the figures for `CNc1cc(F)cc2c1[nH]c1nc(Oc3cnc(NCC(O)CO)nc3)nc(N3C[C@H](N)C4(CC4)C3)c12` (some centres unmarked) [Compound 4.407] were >16 µg/mL and 2 µg/mL (≈ 3.93 µM).
Taken in the same sequence, the figures for `CNc1cc(F)cc2c1[nH]c1nc(Oc3cnc(C)nc3)nc(-c3cncc(F)c3)c12` [Compound 4.417] were 1 µg/mL (≈ 2.38 µM) and ≤0.5 µg/mL.
The like results for `CNc1cc(F)cc2c1[nH]c1nc(Oc3cnc(C)nc3)nc(-c3cn[nH]c3)c12` [Compound 4.418] were, in that order, 1 µg/mL (≈ 2.56 µM) and ≤0.5 µg/mL.
The term MIC denotes the lowest concentration that inhibits growth of the organism. On to `Cc1ncc(Oc2nc(N3C[C@H](N)C4(CC4)C3)c3c(n2)[nH]c2c(N(C)C(=O)[C@H](C)N)cc(F)cc23)cn1` [Compound 4.423], for which the MIC in test [1] and in test [2] was > 16 µg/mL each time.
In the case of `Cc1ncc(Oc2nc(N3C[C@H](N)C4(CC4)C3)c3c(n2)[nH]c2c(N(C)C(=O)[C@H](C)NC(=O)[C@H](C)N)cc(F)cc23)cn1` [Compound 4.425], the MIC in test [1] and in test [2] was > 16 µg/mL throughout.
For the compound `Cc1ncc(Oc2nc(N3C[C@H](N)C4(CC4)C3)c3c(n2)[nH]c2c(N(C)C(=O)CN)cc(F)cc23)cn1` [Compound 4.426], the MIC in test [1] is > 16 µg/mL; in test [2], 8 µg/mL (≈ 16.3 µM).
As to `Cc1ncc(Oc2nc(N3C[C@H](NC(=O)CN)C4(CC4)C3)c3c(n2)[nH]c2c(N(C)C(=O)CN)cc(F)cc23)cn1` [Compound 4.427], the minimum inhibitory concentration (MIC) in test [1] and in test [2] was > 16 µg/mL throughout.
For `CNc1cc(F)cc2c1[nH]c1nc(Oc3cnc(CCO)nc3)nc(N3CC4CC3C[C@@H]4N)c12` (some centres unmarked) [Compound 4.428], the MIC in test [1] was 2 µg/mL (≈ 4.31 µM); in test [2], ≤ 0.5 µg/mL.
Taken in the same sequence, the figures for `CNc1cc(F)cc2c1[nH]c1nc(Oc3cnc(CCO)nc3)nc(N3CC4C[C@@H](N)C4C3)c12` (some centres unmarked) [Compound 4.429] were 1 µg/mL (≈ 2.15 µM) and ≤ 0.5 µg/mL.
Taken in the same sequence, the figures for `CNc1cc(F)cc2c1[nH]c1nc(Oc3cnc(C(C)O)nc3)nc(N3CC4(CC[C@H]4N)C3)c12` (some centres unmarked) [Compound 4.430] were ≤ 0.5 µg/mL and ≤ 0.5 µg/mL.
The like results for `CNc1cc(F)cc2c1[nH]c1nc(Oc3cnc(C(C)(C)O)nc3)nc(N3CC4(CC[C@H]4N)C3)c12` [Compound 4.431] were, in that order, ≤ 0.5 µg/mL and ≤ 0.5 µg/mL.
Consider `CNc1cc(F)cc2c1[nH]c1nc(Oc3cnc(C)nc3)nc(-c3ccc(Cl)c(N)c3)c12` [Compound 4.432], for which the MIC in test [1] was > 16 µg/mL; in test [2], ≤ 0.5 µg/mL.
The like results for `CNc1cc(F)cc2c1[nH]c1nc(Oc3cnc(OC)nc3)nc(N3C[C@H](N)C4(CC4)C3)c12` [Compound 4.433] were, in that order, ≤ 0.5 µg/mL and ≤ 0.5 µg/mL.
`CNc1cc(F)cc2c1[nH]c1nc(Oc3cnc(C#N)c(C)c3)nc(N3CC4CC3C[C@@H]4N)c12` (some centres unmarked) [Compound 4.435]: the MIC in test [1] and in test [2] was ≤ 0.5 µg/mL in each case.
As to `CNc1cc(F)cc2c1[nH]c1nc(Oc3cnc(C)nc3)nc(N3CC(N)C(C(F)(F)F)C3)c12` (centres unmarked) [Compound 4.436], the MIC in test [1] was > 16 µg/mL; in test [2], ≤ 0.5 µg/mL.
Taken in the same sequence, the figures for `CNc1cc(F)cc2c1[nH]c1nc(Oc3cnc(C)nc3)nc(N3CC(N)C(C(=O)OC)C3)c12` (centres unmarked) [Compound 4.437] were 1 µg/mL (≈ 2.14 µM) and ≤ 0.5 µg/mL.
In the case of `CNc1cc(F)cc2c1[nH]c1nc(Oc3cnc(C)nc3)nc(N3CC(N)C(C(=O)N4CCOCC4)C3)c12` (centres unmarked) [Compound 4.438], the minimum inhibitory concentration (MIC) in test [1] stood at 16 µg/mL (≈ 30.7 µM); in test [2], 1 µg/mL (≈ 1.92 µM).
The like results for `CNc1cc(F)cc2c1[nH]c1nc(Oc3cnc(C)nc3)nc(N3CC(N)C(C(=O)NCC(C)O)C3)c12` (centres unmarked) [Compound 4.439] were, in that order, > 16 µg/mL and 8 µg/mL (≈ 15.7 µM).
Taken in the same sequence, the figures for `CNc1cc(F)cc2c1[nH]c1nc(Oc3cnc(C)nc3)nc(N3CC(N)C(C(=O)NCCN4CCOCC4)C3)c12` (centres unmarked) [Compound 4.440] were > 16 µg/mL and 16 µg/mL (≈ 28.3 µM).
On to `CNc1cc(F)cc2c1[nH]c1nc(Oc3cnc(C(C)(C)C)nc3)nc(N3CC4CC3C[C@H]4N)c12` (some centres unmarked) [Compound 4.441], for which the MIC in test [1] and in test [2] was ≤ 0.5 µg/mL each time.
Regarding `CNc1cc(F)cc2c1[nH]c1nc(Oc3cnc(C(C)(C)N)nc3)nc(N3C[C@H]4CC3C[C@H]4N)c12` [Compound 4.442], the figures for the MIC in test [1] and in test [2] were 2 µg/mL (≈ 4.19 µM) and 1 µg/mL (≈ 2.09 µM), respectively.
Taken in the same sequence, the figures for `CNc1cc(F)cc2c1[nH]c1nc(Oc3cnc(CF)nc3)nc(N3C[C@H]4CC3C[C@H]4N)c12` [Compound 4.443] were ≤ 0.5 µg/mL and ≤ 0.5 µg/mL.
The like results for `CNc1cc(F)cc2c1[nH]c1nc(Oc3cnc(C)nc3)nc(-c3ccc(F)cc3CN)c12` [Compound 4.445] were, in that order, > 16 µg/mL and 2 µg/mL (≈ 4.47 µM).
The like results for `CNc1cc(F)cc2c1[nH]c1nc(Oc3cnc(C)nc3)nc(-c3cc(CN)ccc3F)c12` [Compound 4.446] were, in that order, 8 µg/mL (≈ 17.9 µM) and 2 µg/mL (≈ 4.47 µM).
For the compound `CNc1cc(F)cc2c1[nH]c1nc(Oc3cnc(C)nc3)nc(-c3cccc(CN)c3F)c12` [Compound 4.447], the MIC in test [1] was determined as 16 µg/mL (≈ 35.8 µM); in test [2], 4 µg/mL (≈ 8.94 µM).
As to `CNc1cc(F)cc2c1[nH]c1nc(Oc3cnc(C)nc3)nc(-c3cccnc3N)c12` [Compound 4.448], the MIC in test [1] was 1 µg/mL (≈ 2.4 µM); in test [2] it was ≤ 0.5 µg/mL.
For the compound `CNc1cc(F)cc2c1[nH]c1nc(Oc3cnc(C)nc3)nc(-c3cncnc3)c12` [Compound 4.449], the MIC in test [1] is > 16 µg/mL; in test [2] it was ≤ 0.5 µg/mL.
The like results for `CNc1cc(F)cc2c1[nH]c1nc(Oc3cnc(C)nc3)nc(-c3cncc(N)c3)c12` [Compound 4.450] were, in that order, 2 µg/mL (≈ 4.8 µM) and ≤ 0.5 µg/mL.
Consider `CNc1cc(F)c(F)c2c1[nH]c1nc(Oc3ncc(C)cn3)nc(N3CC4C(N)C4C3)c12` (centres unmarked) [Compound 5.04], for which, in test [1], the “MIC Ec” value was ≤0.5 µg/mL. The “MIC Sa” value in test [2] was ≤0.5 µg/mL.
For the compound `CNc1cc(F)c(F)c2c1[nH]c1nc(Oc3ncc(C)cn3)nc(N3CC(N)C3)c12` [Compound 5.06], the “MIC Ec” value in test [1] is ≤0.5 µg/mL. Moreover, the “MIC Sa” value in test [2] is ≤0.5 µg/mL.
As to `CNc1cc(F)c(F)c2c1[nH]c1nc(Oc3cnc(CO)nc3)nc(N3C[C@H]4C[C@@H]3C[C@H]4N)c12` [Compound 5.14], the MIC in test [1] and in test [2] was ≤ 0.5 µg/mL in each case.
As for `CNc1cc(F)c(F)c2c1[nH]c1nc(Oc3cnc4c(c3)ncn4C3CC3)nc(N3C[C@H]4C[C@@H]3C[C@H]4N)c12` [Compound 5.15], the MIC is 1 µg/mL (≈ 1.93 µM) in test [1] and ≤ 0.5 µg/mL in test [2].
Consider `CNc1cc(F)c(F)c2c1[nH]c1nc(Oc3cncnc3)nc(N3CC4C(N)C4C3)c12` (centres unmarked) [Compound 6.19], for which, in test [1], the “MIC Ec” value was >16 µg/mL. The “MIC Sa” value in test [2] was >16 µg/mL.
Take `CNc1cc(F)c(C)c2c1[nH]c1nc(Oc3cnc(C)nc3)nc(N3CC4(CCC4N)C3)c12` (centres unmarked) [Compound 6.20]: the “MIC Ec” value in test [1] is >16 µg/mL. Also, in test [2], the “MIC Sa” value was 4 µg/mL (≈ 8.92 µM).
Taken in the same sequence, the figures for `CNc1cc(F)c(C)c2c1[nH]c1nc(Oc3cnc(C)nc3)nc(NCCCN)c12` [Compound 6.21] were >16 µg/mL and >16 µg/mL.
Taken in the same sequence, the figures for `CNc1cc(C)cc2c1[nH]c1nc(Oc3cnc(C)nc3)nc(N3CC4C(N)C4C3)c12` (centres unmarked) [Compound 6.26] were 1 µg/mL (≈ 2.4 µM) and ≤0.5 µg/mL.
Taken in the same sequence, the figures for `CNc1cc(C)cc2c1[nH]c1nc(Oc3cncnc3)nc(N3CC4C(N)C4C3)c12` (centres unmarked) [Compound 6.27] were 1 µg/mL (≈ 2.48 µM) and ≤0.5 µg/mL.
`CNc1nccc2c1[nH]c1nc(Sc3cnc4nccnc4c3)nc(N3CC[C@@H](N)C3)c12` [Compound 7.01]: the MIC in test [1] was > 64 µg/mL; in test [2] it was 8 µg/mL (≈ 18 µM).
`CNc1nccc2c1[nH]c1nc(Oc3cncnc3)nc(N3CC[C@@H](N)C3)c12` [Compound 7.02]: the MIC in test [1] was 32 µg/mL (≈ 84.8 µM); in test [2], > 64 µg/mL.
Taken in the same sequence, the figures for `COc1nccc2c1[nH]c1nc(Sc3cnc4cccnc4c3)nc(N3CC4C(N)C4C3)c12` (centres unmarked) [Compound 7.03] were > 64 µg/mL and 2 µg/mL (≈ 4.38 µM).
`CNc1ncnc2c1[nH]c1nc(Oc3cncc(F)c3)nc(N3CC4C(N)C4C3)c12` (centres unmarked) [Compound 7.04]: the MIC in test [1] was 32 µg/mL (≈ 78.5 µM); in test [2], 8 µg/mL (≈ 19.6 µM).
The like results for `CNc1ncnc2c1[nH]c1nc(Oc3cnc(C)nc3)nc(N3CC4C(N)C4C3)c12` (centres unmarked) [Compound 7.05] were, in that order, 64 µg/mL (≈ 158 µM) and 8 µg/mL (≈ 19.8 µM).
For `CNc1ncnc2c1[nH]c1nc(Oc3cncc(F)c3)nc(N3CC(N)C4(CC4)C3)c12` (centres unmarked) [Compound 7.06], the MIC is 64 µg/mL (≈ 152 µM) in test [1] and 8 µg/mL (≈ 19 µM) in test [2].
